Measurements reported in patent US20240018105A1, “TROPOLONE DERIVATIVES AND TAUTOMERS THEREOF FOR IRON REGULATION IN ANIMALS” (Kinesid Therapeutics, Inc., priority 2019, published 2024).

Key:
[1] = system: DMT1-deficient Caco-2 cells; assay: shDMT1-Caco2 55Fe transport assay; type: cell-based; conditions: Caco-2
Excerpt: Assay 2: shDMT1-Caco2 ^55Fe Transport Assay to Assess Ligand Ability in Transporting Fe (III)
Cells: DMT1-deficient Caco-2 cells (alias: “shDMT1,” or “4A” cells) were from Grillo et al. Science, 2017, and were cryopreserved in liquid nitrogen prior to use.
Reagents and supplies: ^55FeCl3 was obtained from PerkinElmer (Boston, MA). Iron(III) chloride (FeCl3) hexahydrate was obtained from Sigma. Dulbecco's Modified Eagle Medium (DMEM), fetal bovine serum (FBS), L-glutamine, MEM nonessential amino acids, penicillin-streptomycin, G418, formic acid, methanol, high-purity water, ammonium formate, dimethyl sulfoxide (DMSO) were purchased from Fisher Scientific. Propranolol, atenolol and carbutamide were obtained from Sigma-Aldrich Chemical Company (St Louis, MO). Scintillation cocktail was obtained from Research Product International Co. (Mount Prospect, IL). Stericup filter system (PES membrane, 0.22 um pore size) was purchased from Fisher Scientific. Coming item #3378 24-well transwell insert plates. Test articles: known compounds hinokitiol and deferiprone were purchased from Sigma. They are tested side by side with the small molecule ligands disclosed in this application. DMSO stocks (10 mM, which is 1,000× of the 10 μM dose level) of hinokitiol or test articles were prepared. A stock solution of 25 mM deferiprone in DMSO was prepared. The DMSO stock solutions were stored at −20° C. or below when not in use.
The growth medium was prepared according to the following table
Apical media (serum free DMEM, 10 mM MES, pH 6.5) was prepared. Apical master mix media was prepared fresh with the addition of 200 nM ^55Fe before each experiment. For the negative control propranolol and atenolol wells, 200 nM of non-radioactive iron was used.
The basolateral media was serum-free DMEM, 10 mM HEPES, 2% bovine serum albumin (BSA), pH 7.4.
For each experiment, cells were seeded into the 24-well transwell plates (0.5 mL of 50,000 cells/mL) with growth media. The basolateral companion plate was loaded with 1 mL of growth media. After 12-24 hr, both the apical and basolateral chamber were replaced with growth media. The apical media was changed 3× per week for 21-28 days, including a media change exactly 48 hr before the assay date.
On the assay day, the TEER values were measured and the average TEER values was obtained. Individual wells with TEER vaule >35% lower than the average of all wells were excluded. For the qualified wells, the apical layer (twice) and basolaterial (once) chambers were washed with PBS. The basolateral companion plate was then filled with 1 mL of basolateral media. Via addition down the side-wall of the apical well, 300 μL per well of the apical assay master mix, with the indicated dose level of test article, was added. Each dose was tested in triplicate. The plates were incubated (5% CO2 and 90% humidity at 37° C.) for the indicated timepoints. At each indicated timepoint, the basolateral supernatant was gently mixed via pipetting, and 200 μL of the basolateral supernatant was transferred to scintillation vials. To each scintillation counting vial, 5 mL of scintillation cocktail fluid was added. For each scintillation vial, the radioactivity (CPM) was determined with liquid scintillation counter LS6500. The counting time per vial was 5 min.
All raw CPM values are divided by the average value of blank DMSO solution to give a fold of change above the DMSO value. The mean and standard deviation of each compound at each concentration level and at each time point measured was calculated to give the fold change (fc) value.
For rank order compounds, the fc value of a ligand at 4 h time point is further divided by the fold change (fc) value of hinokitiol (a positive control compound) at an equimolar concentration to arrive at the FC (normalized fold of change) value. Data reported in Tables 1 and 2 is 4 hr time point FC=fc-ligand @ 3 uM/fc-hino @ 3 uM, and FC hino=1.

[2] = Ligand facilitated Fe(III) efflux from liposomes; conditions: 10 uM ligand concentration; Table 1
Protocol: Assay 1: Ligand Facilitated Fe(III) Efflux from Liposomes Preparation of POPC (1-palmitoyl-2-oleoyl-sn-glycero-3-phosphocholine): Cholesterol Liposomes:
A 1M buffer solution of MES and Tris was prepared by dissolving 121.14 grams of Tris base and 213.25 grams of MES hydrate in 500 mL of MilliQ water and adjusted to pH7.0 using an […] HCl solution before bringing the total volume of the solution to 1 L. A 500 mM solution of FeCl3 was prepared by dissolving 0.811 grams of anhydrous FeCl3 in 10 mL of a 0.1M H2SO4 aqueous solution. Inside buffer is prepared in a 50 mL falcon tube, which was added with 25 mL of MilliQ water, 1.61 g of sodium citrate, 1.5 mL of the above FeCl3 solution, and 2.5 mL of the 1M MES/Tris HCl buffer (pH=7.0), and finally additional MilliQ H2O to bring to a 50 mL final volume.
Lipid solution is prepared by dissolving 206.9 mg of POPC (1-palmitoyl-2-oleoyl-sn-glycero-3-phosphocholine) and 8.6 mg of cholesterol in 10 mL of ethanol.
The lipids solution and the inside buffer solution are independently loaded into 10 mL luer lock syringes for loading into a virgin cartridge on a Precision Nanosystems NanoAssembler to prepare unilamaller liposomes with the following parameters: 7.5 mL total volume, 1.5:1 mixing ratio of inside buffer:lipids solution, 8 mL/min flow rate, ambient temperature, 0.35 mL start waste, and 0.05 mL of end waste. 7.5 mL of liposomes is harvested for purification on a 6-inch long, 1-inch diameter Sephadex G-50 column wetted in 600 mM sodium ascorbate and 50 mM MES/Tris HCl pH 7.0 buffer. This buffer also serves as the column running buffer. The crude liposome solution is carefully loaded with minimal volume of running buffer above the top of the Sphadex, allowed to enter the matrix, and the column is run with the continued addition of running buffer. The eluting liposomes, observed as a milky and turbid solution, are collected until free iron begins to elute (observed as a deep purple color) and the fractions are pooled for phosphorus quantitation.
Phosphorus content of eluted liposomes was determined by the process outlined below. 10 uL of liposome elution and a running buffer blank are added to a 5 mL glass vial containing 450 uL of a 8.9 M aqueous H2SO4 solution, the mixture is heated to 225° C. for 25 minutes in an aluminum heat block to hydrolyze POPC and cooled for 5 minutes. 200 ul of a 30% hydrogen peroxide aqueous solution is added to each vial and heated to 225° C. for 25 minutes. After cooling, the phosphorus content was determined using an Abcam Phosphate Assay kit, with buffer subtracted phosphorus levels determined against a standard curve of phosphate included in the kit. Liposomes were diluted to 1 mM phosphate in Running Buffer for use in assays after accounting for dilutions made during phospholipid digestion.
Determination of the rate at which a small molecule ligand liberates (transport) Ferric iron from liposomes is performed in clear bottom black 384-well plates on a Spectramax i3x set to read the absorbance at 562 nm in the kinetic mode every 60 seconds for 120 minutes. 1 uL of serially diluted DMSO stock solution of a small molecule ligand is added to wells in triplicate to give the final concentrations of 40, 20, 10, 5, 2.5, and 1.25 uM of the ligand at 80 μL final volume, followed by addition of 1 μL of 100 mM Ferrozine in water to give a final concentration of 1 mM ferrozine. 78 uL of liposomes diluted to 1 mM phosphorus in running buffer is added to wells as quickly as possible (using a digital repeater mulchannel pipette) with the kinetic read initiated as rapidly as possible after addition of liposomes to all wells. Typically, eight compounds at six concentrations are tested in triplicate simultaneously.
Upon completion of kinetic read, the data for individual reads is fitted to a single phase association regression with the equation Y=(Y0−YMax)^(−kX)+YMax, with Y being the 562 absorbance value and X being time in minutes. […]

Row | Compound | Caco2 shDMT1 transport FC @ 3 μM, 4h [1] | Liposome Fe transport kefflux at 10 10 μM [2]
1 | O=c1cccc(-c2cncc(F)c2F)cc1O [Ex.2, 4-(4,5-difluoropyridin-3-yl)-2-hydroxycyclohepta-2,4,6-trien-1-one] | 0.01-0.5 | 0.1-5
2 | N#Cc1cncc(-c2cccc(=O)c(O)c2)c1 [Ex.4, 5-(6-hydroxy-5-oxocyclohepta-1,3,6-trien-1-yl)nicotinonitrile] | 0.01-0.5 | 0.1-5
3 | COc1cc(-c2cccc(=O)c(O)c2)c(F)cn1 [Ex.6, 4-(5-fluoro-2-methoxypyridin-4-yl)-2-hydroxycyclohepta-2,4,6-trien-1-one] | 0.01-0.5 | 7.5-10
4 | COc1cc(-c2cccc(=O)c(O)c2)ccn1 [Ex.8, 2-hydroxy-4-(2-methoxypyridin-4-yl)cyclohepta-2,4,6-trien-1-one] | 0.01-0.5 | 7.5-10
5 | Cc1cnccc1-c1cccc(=O)c(O)c1 [Ex.9, 2-hydroxy-4-(3-methylpyridin-4-yl)cyclohepta-2,4,6-trien-1-one] | 0.01-0.5 | 0.1-5
6 | COc1cncc(-c2cccc(=O)c(O)c2)c1 [Ex.10, 2-hydroxy-4-(5-methoxypyridin-3-yl)cyclohepta-2,4,6-trien-1-one] | 0.01-0.5 | 0.1-5
7 | O=c1cccc(-c2cccnc2)cc1O [Ex.11, 2-hydroxy-4-(pyridin-3-yl)cyclohepta-2,4,6-trien-1-one] | 0.01-0.5 | 0.1-5
8 | COc1cc(-c2cccc(=O)c(O)c2)cnc1OC [Ex.12, 4-(5,6-dimethoxypyridin-3-yl)-2-hydroxycyclohepta-2,4,6-trien-1-one] | 0.5-1 | 7.5-10
9 | O=c1ccc(-c2cncc(F)c2)ccc1O [Ex.15, 5-(5-fluoropyridin-3-yl)-2-hydroxycyclohepta-2,4,6-trien-1-one] | 0.01-0.5 | 5-7.5
10 | O=c1cccc(-c2cncc(Cl)c2)cc1O [Ex.17, 4-(5-chloropyridin-3-yl)-2-hydroxycyclohepta-2,4,6-trien-1-one] | 0.01-0.5 | 5-7.5
11 | Cc1ccc(-c2cccc(=O)c(O)c2)cn1 [Ex.18, 2-hydroxy-4-(6-methylpyridin-3-yl)cyclohepta-2,4,6-trien-1-one] | 0.01-0.5 | 0.1-5

Now from value to compound, other results behind:

Row | Caco2 shDMT1 transport FC @ 3 μM, 4h [1] | Compound | Liposome Fe transport kefflux at 10 10 μM [2]
12 | 0.01-0.5 | COc1ccc(-c2cccc(=O)c(O)c2)cn1 [Ex.19, 2-hydroxy-4-(6-methoxypyridin-3-yl)cyclohepta-2,4,6-trien-1-one] | 0.1-5
13 | 0.01-0.5 | O=c1ccccc(-c2cncc(F)c2)c1O [Ex.24, 2-(5-fluoropyridin-3-yl)-7-hydroxycyclohepta-2,4,6-trien-1-one] | 7.5-10
14 | 0.01-0.5 | O=c1cccc(-c2cncnc2)cc1O [Ex.29, 2-hydroxy-4-(pyrimidin-5-yl)cyclohepta-2,4,6-trien-1-one] | 5-7.5
15 | 0.01-0.5 | COc1ncc(-c2cccc(=O)c(O)c2)cn1 [Ex.30, 2-hydroxy-4-(2-methoxypyrimidin-5-yl)cyclohepta-2,4,6-trien-1-one] | 0.1-5
16 | 0.01-0.5 | Cc1ncc(-c2ccc(O)c(=O)cc2)cn1 [Ex.33, 2-hydroxy-5-(2-methylpyrimidin-5-yl)cyclohepta-2,4,6-trien-1-one] | 0.1-5
17 | 0.01-0.5 | Cc1ncc(-c2ccccc(=O)c2O)cn1 [Ex.34, 2-hydroxy-3-(2-methylpyrimidin-5-yl)cyclohepta-2,4,6-trien-1-one] | 0.1-5
18 | 0.01-0.5 | Cc1ncc(-c2ccc(O)c(=O)cc2)c(C)n1.O=C(O)C(F)(F)F [Ex.35, 5-(2,4-dimethylpyrimidin-5-yl)-2-hydroxycyclohepta-2,4,6-trien-1-one] | 7.5-10
19 | 0.01-0.5 | Cc1ncc(-c2ccccc(=O)c2O)c(C)n1 [Ex.36, 3-(2,4-dimethylpyrimidin-5-yl)-2-hydroxycyclohepta-2,4,6-trien-1-one] | 5-7.5
20 | 0.01-0.5 | COc1nccc(-c2ccc(O)c(=O)cc2)n1.O=C(O)C(F)(F)F [Ex.38, 2-hydroxy-5-(2-methoxypyrimidin-4-yl)cyclohepta-2,4,6-trien-1-one] | 0.1-5
21 | 0.01-0.5 | COc1nccc(-c2cccc(=O)c(O)c2)n1.O=C(O)C(F)(F)F [Ex.39, 2-hydroxy-4-(2-methoxypyrimidin-4-yl)cyclohepta-2,4,6-trien-1-one] | 0.1-5
